Where two headings read alike, the source gives them in different places.
Tested on: Human prostate PC3 tumor cells
Experiment: aFGF/bFGF-induced resistance and reversal by suramin, sulforhodamine B assay
Assay type: cell-based
Description: The experimental conditions are described briefly below. […] Cell number was measured using the sulforhodamine B assay which measures the total protein concentration. […] The FGF-induced resistance was dependent on the FGF concentrations, with a higher resistance at higher FGF concentrations.

[1] = Homo sapiens, 96 h, read-out: IC50, Control (drug treatment only, without FGF treatment), No suramin
[2] = Homo sapiens, 96 h, read-out: IC50, aFGF 0.3 ng/ml + bFGF 1 ng/ml, No suramin
[3] = Homo sapiens, 96 h, read-out: IC50, aFGF 1 ng/ml + bFGF 3 ng/ml, No suramin
[4] = read-out: IC50, Control (without FGF treatment), Suramin, 15 μM
[5] = read-out: IC50, aFGF 0.3 ng/ml + bFGF 1 ng/ml, With suramin
[6] = read-out: IC50, aFGF 1 ng/ml + bFGF 3 ng/ml, With suramin
[7] = no suramin, relative to control
[8] = read-out: IC50, Control (without FGF treatment), Suramin, 15 μM, drug 96 hours with 15 μM suramin
[9] = read-out: IC50, aFGF 0.3 ng/ml + bFGF 1 ng/ml, With suramin, FGF pretreatment 96 hours, drug 96 hours with 15 micromolar suramin
[10] = read-out: IC50, aFGF 1 ng/ml + bFGF 3 ng/ml, With suramin, FGF pretreatment 96 hours, drug 96 hours with 15 micromolar suramin
[11] = Homo sapiens, read-out: IC50, Control (drug treatment only, without FGF treatment), No suramin, drug 96 hours
[12] = Homo sapiens, read-out: IC50, aFGF 0.3 ng/ml + bFGF 1 ng/ml, No suramin, FGF pretreatment 96 hours, drug 96 hours
[13] = Homo sapiens, read-out: IC50, aFGF 1 ng/ml + bFGF 3 ng/ml, No suramin, FGF pretreatment 96 hours, drug 96 hours

| SMILES | Resistance, Folds, aFGF 0.3 ng/ml + bFGF 1 ng/ml [Folds] | Resistance, Folds, aFGF 1 ng/ml + bFGF 3 ng/ml [Folds] | IC50 [1] [nM] | IC50 [2] [nM] | IC50 [3] [nM] | IC50 [4] [nM] | IC50 [5] [nM] | IC50 [6] [nM] | Resistance, Folds, aFGF 0.3 ng/ml + bFGF 1 ng/ml [7] [Folds] | Resistance, Folds, aFGF 1 ng/ml + bFGF 3 ng/ml [7] [Folds] | IC50 (read-out: IC50, Control (drug treatment only, without FGF treatment), No suramin, drug 96 hours) [nM] | IC50 [8] [nM] | IC50 (read-out: IC50, aFGF 0.3 ng/ml + bFGF 1 ng/ml, No suramin, FGF pretreatment 96 hours, drug 96 hours) [nM] | IC50 [9] [nM] | IC50 (read-out: IC50, aFGF 1 ng/ml + bFGF 3 ng/ml, No suramin, FGF pretreatment 96 hours, drug 96 hours) [nM] | IC50 [10] [nM] | IC50 [11] [nM] | IC50 [12] [nM] | IC50 [13] [nM] |
| --- | --- | --- | --- | --- | --- | --- | --- | --- | --- | --- | --- | --- | --- | --- | --- | --- | --- | --- | --- |
| S=P(N1CC1)(N1CC1)N1CC1 [Thiotepa] | 4.96 | 8.61 | 3850 | 19100 | 33200 | 4070 | 4090 | 4170 |  |  |  |  |  |  |  |  |  |  |  |
| Nc1ncnc2c1ncn2[C@@H]1O[C@H](CO)[C@@H](O)[C@@H]1O [Adenosine arabinoside (Ara-A), Adenosine arabinoside] |  |  |  |  |  |  |  |  | 1.56 | 2.13 | 21500 | 22700 | 33600 | 19000 | 45700 | 21000 |  |  |  |
| O=C1NC2(CCCCC2)C(=O)N1CCN(CCCl)CCCl [Spiromustine] | 2.15 | 3.46 | 25300 | 54500 | 87600 | 24400 | 25400 | 26600 |  |  |  |  |  |  |  |  |  |  |  |
| NC(=O)c1csc([C@@H]2O[C@H](CO)[C@@H](O)[C@H]2O)n1 [Tiazofurin] |  |  |  |  |  |  |  |  | 1.94 | 2.57 |  | 7900 |  | 7250 |  | 6150 | 7500 | 14600 | 19200 |
| C/C=C1\NC(=O)[C@H]2CSSCC/C=C/[C@H](CC(=O)N[C@H](C(C)C)C(=O)N2)OC(=O)[C@H](C(C)C)NC1=O [Depsipeptide] |  |  |  |  |  |  |  |  | 1.38 | 1.93 |  | 1.03 |  | 1.16 |  | 1.16 | 1.12 | 1.55 | 2.16 |
| NC(=O)c1[nH]nc([C@@H]2O[C@H](CO)[C@@H](O)[C@H]2O)c1O [Pyrazofurin] |  |  |  |  |  |  |  |  | 1.20 | 3.27 |  | 3830 |  | 3650 |  | 3800 | 3380 | 4070 | 11100 |
| COc1cccc2c1C(=O)c1c(O)c3c(c(O)c1C2=O)C[C@@](O)(C(C)=O)C[C@@H]3O[C@H]1C[C@H](N)[C@H](O)[C@H](C)O1 [Daunorubicin] |  |  |  |  |  |  |  |  | 3.31 | 5.33 |  | 29.1 |  | 26.5 |  | 30.2 | 29.4 | 97.4 | 157 |
| CO[C@@]12[C@H](COC(N)=O)C3=C(C(=O)C(C)=C(N)C3=O)N1C[C@@H]1N[C@@H]12 [Mitomycin C] |  |  |  |  |  |  |  |  |  |  |  | 1530 |  | 1690 |  | 1600 | 1610 | 3060 | 4700 |
| COc1cccc2c1C(=O)c1c(O)c3c(c(O)c1C2=O)C[C@@](O)(C(=O)CO)C[C@@H]3O[C@H]1C[C@H](N)[C@@H](O)[C@H](C)O1 [Epirubicin] |  |  |  |  |  |  |  |  | 1.63 | 2.75 |  | 120 |  | 122 |  | 137 | 102 | 167 | 282 |
| N[C@@H](CN(O)N=O)C(=O)O [Alanosine] |  |  |  |  |  |  |  |  | 2.03 | 3.44 |  | 2150 |  | 2400 |  | 2120 | 2060 | 4180 | 7080 |
| COc1cc(NS(C)(=O)=O)ccc1Nc1c2ccccc2nc2ccccc12 [Amsacrine] |  |  |  |  |  |  |  |  | 1.85 | 2.66 |  | 680 |  | 740 |  | 670 | 710 | 1320 | 1900 |
| O=c1[nH]c(=O)n([C@@H]2O[C@H](CO)[C@@H](O)[C@H]2O)cc1F [5-Fluorouridine] |  |  |  |  |  |  |  |  | 1.57 | 2.50 |  |  |  | 330 |  | 290 | 280 | 440 | 700 |
| N[C@H](C(=O)O)[C@@H]1CC(Cl)=NO1 [Acivicin] |  |  |  |  |  |  |  |  | 2.11 | 3.49 |  | 1280 |  | 1650 |  | 1630 | 1580 | 3340 | 5520 |

From patent US20040010001A1, “Methods and compositions for modulating cell proliferation and cell death” (priority 1999, published 2004)
